# Entries after “also recorded” stand apart in the source; their conditions may differ. Read-outs that look alike come from different tables or passages of the source.
# Key:
# [1] = biological target: T1, human leukocyte elastase (HLE) (Homo sapiens, UniProt P08246); assay: HLE amidolytic activity (methoxysuccinyl-Ala-Ala-Pro-Val-p-nitroanilide); format: biochemical
# T1 sequence (P08246 30-267): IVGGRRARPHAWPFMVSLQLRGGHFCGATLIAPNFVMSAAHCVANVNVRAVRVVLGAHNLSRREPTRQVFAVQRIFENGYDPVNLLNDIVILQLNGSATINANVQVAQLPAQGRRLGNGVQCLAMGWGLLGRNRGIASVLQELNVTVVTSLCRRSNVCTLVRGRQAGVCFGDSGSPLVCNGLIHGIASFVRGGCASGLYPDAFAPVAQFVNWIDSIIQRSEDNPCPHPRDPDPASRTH
# Text: This oligopeptide is generally assumed to occupy the first five subsites of the extended substrate binding domain in HLE.
# To avoid time-dependent adsorption of HLE onto the wells of the 96-well microplates used in the amidolytic assays, the plates were pretreated with a solution of 0.2% bovine serum albumin. […] The […] concentration at which the Dixon plots intersect is a measure of Ki for the inhibitor.
# The inhibitory activity of doxycycline towards amidolysis of methoxysuccinyl-Ala-Ala-Pro-Val-p-nitroanilide by HLE was also determined in the presence of 2% DMSO and no detergent, as described above for CMT-3.
# [2] = system: human neutrophils (live PMN's); assay: Neutrophil (PMN + 0.5 nM PMA)-mediated R22-ECM hydrolysis (3H-proline cpm released in 6 h); format: cell-based; settings: for activity at 5 µM / activity at 25 µM / activity at 50 µM: Homo sapiens, Neutrophil; for activity at 5 µM / activity at 25 µM / activity at 50 µM / ECM HYDROLYSIS (% CONTROL): control = hydrolysis in absence of any inhibitor normalized to 100%, 6 h at 37° C.; for inhibition of ECM degradation, in words: 5-50 μM, Table 1 and FIG. 1
# Text: The activity of various tetracyclines was investigated employing an in vitro assay of inflammatory tissue injury in which human neutrophils are allowed to degrade a biosynthetically prepared complete interstitial stromal extracellular matrix (ECM). A neutrophil is one type of leukocyte (polymorphonuclear leukocyte). […] E. J. Roemer, K. J. Stanton, and S. R. Simon, "In Vitro Assay Systems for Inflammatory Cell-Mediated Damage to Interstitial Extracellular Matrix," In Vitro Toxicol. 7,75-81 (1994); E. J. Roemer, K. J. Stanton, and S. R. Simon, "In Vitro Assay Systems for Cell Interactions With Interstitial Extracellular Matrix," In Vitro Toxicol. 7,209-224 (1994).
# The serine proteinase inhibiting activity of tetracyclines was tested using an in vitro assay of inflammatory tissue injury in which human neutrophils (live PMN's) were allowed to degrade a biosynthetically prepared complete interstitial stromal extracellular matrix (ECM) produced by cultured R22 rat heart smooth muscle cells as described by Roemer et al. (E. J. Roemer, K. J. Stanton, and S. R. Simon, "In Vitro Assay Systems for Inflammatory Cell-Mediated Damage to Interstitial Extracellular Matrix," In Vitro Toxicol. 7,75-81 (1994); E. J. Roemer, K. J. Stanton, and S. R. Simon, "In Vitro Assay Systems for Cell Interactions With Interstitial Extracellular Matrix," In Vitro Toxicol. 7,209-224 (1994)). Ten different chemically modified tetracyclines (CMTs) designated CMT-1 through CMT-10 and doxycycline, at concentrations ranging from 5 μM to 50 μM, were added to the ECM simultaneously with a suspension of 2×10^6 viable human PMN/mL in Hank's balanced salts solution (HBSS). In these studies, the ECM was metabolically radiolabeled with ^3 H-proline, and counts solubilized after six hours of incubation were measured and compared with counts released after incubation with PMN alone.
# [3] = biological target: T2, leukocyte elastase (Homo sapiens, UniProt P08246); assay: Leukocyte elastase inhibitory activity; format: biochemical
# T2 sequence (P08246 30-247): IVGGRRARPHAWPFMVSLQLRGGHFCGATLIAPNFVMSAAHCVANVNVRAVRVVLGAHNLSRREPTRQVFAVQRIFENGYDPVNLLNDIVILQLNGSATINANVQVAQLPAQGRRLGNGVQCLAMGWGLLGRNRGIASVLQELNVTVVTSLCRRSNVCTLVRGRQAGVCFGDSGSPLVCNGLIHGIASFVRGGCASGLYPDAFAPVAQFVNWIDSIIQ
# [4] = biological target: MMP-8; settings: in vitro; read-out: K1, inhibition of MMP-8 activity in vitro; cited from earlier work
# [5] = system: human neutrophils (live PMN's); settings: cited from earlier work
Compound,"potency as inhibitors of the amidolytic activity of HLE, in words [1]",ECM HYDROLYSIS (% CONTROL) ([2]; 5 μm),ECM HYDROLYSIS (% CONTROL) ([2]; 25 μm),ECM HYDROLYSIS (% CONTROL) ([2]; 50 μm),also measured
CN(C)C1C(=O)C(C(N)=O)=C(O)C2(O)C(=O)C3=C(O)c4c(O)ccc(Cl)c4C(C)(O)C3CC12 (stereo not drawn) [epi-chlorotetracycline],comparably low or no potency,–,–,–,–
CN(C)[C@@H]1C(O)=C(C(N)=O)C(=O)[C@@]2(O)C(O)=C3C(=O)c4c(O)ccc(Cl)c4[C@@](C)(O)[C@H]3C[C@@H]12 [chlorotetracycline],comparably low or no potency,–,–,–,–
C[C@H]1c2cccc(O)c2C(=O)C2=C(O)[C@]3(O)C(=O)C(C(N)=O)=C(O)[C@@H](N(C)C)[C@@H]3[C@@H](O)[C@@H]21 [doxycycline],only very weak inhibition; also recorded: only a very weak inhibitor of HLE,–,–,–,"activity at 5 µM ([2]; 5 μm): 98%; activity at 25 µM ([2]; 25 μm): 92%; activity at 50 µM ([2]; 50 μm): 84%; Ki ([1]; 2% DMSO, no detergent, 100 μM through 300 μM substrate, Dixon plot, read-out: Ki for inhibition of amidolytic activity of HLE): ~300 µM; Ki ([1]; Dixon and Cornish-Bowden plots, FIGS. 3-5, read-out: apparent K1, inhibition of amidolysis): > 300 µM; leukocyte elastase inhibitory activity, in words [3]: do not exhibit substantial leukocyte elastase inhibitory activity; Ki [4]: 25 to 50 µM"
αhd 1-PI: the major endogenous inhibitor of human leukocyte elastase,–,–,–,–,"neutrophil-mediated degradation of ECM, inhibition in words [5]: virtually completely inhibited"
CN(C)C1C(=O)C(C(N)=O)=C(O)C2(O)C(=O)C3=C(O)c4c(O)cccc4C(C)(O)C3C(O)C12 (centres unmarked) [oxytetracycline],comparably low or no potency,–,–,–,–
Cc1c2c(c(O)c3c(O)ccc(Cl)c13)C(=O)C1(O)C(O)=C(C(N)=O)C(=O)C(N(C)C)C1C2 (centres unmarked) [anhydrochlorotetracycline],comparably low or no potency,–,–,–,–
"CN(C)c1ccc(O)c2c1C[C@H]1C[C@H]3CC(O)=C(C(N)=O)C(=O)[C@@]3(O)C(O)=C1C2=O [CMT-10, 4-de(dimethylamino)minocycline]",–,–,–,–,"inhibition of ECM degradation, in words [2]: showed some inhibition of ECM degradation; activity at 5 µM ([2]; 5 μm): 101%; activity at 25 µM ([2]; 25 μm): 85%; activity at 50 µM ([2]; 50 μm): 80%"
"CN(C)C1C(=O)C(C#N)=C(O)C2(O)C(=O)C3=C(O)c4c(O)cccc4C(C)(O)C3CC12 (centres unmarked) [CMT-2, tetracyclinonitrile]",–,–,–,–,activity at 5 µM ([2]; 5 μm): 91%; activity at 25 µM ([2]; 25 μm): 95%; activity at 50 µM ([2]; 50 μm): 100%
"CC1(O)c2cccc(O)c2C(=O)C2=C(O)C3(O)C(=O)C(C(N)=O)=C(O)C(O)C3CC21 (centres unmarked) [CMT-6, 4-hydroxy-4-de(dimethylamino)tetracycline]",–,109,101,97,–
"CC1(O)c2c(Cl)ccc(O)c2C(=O)C2=C(O)C3(O)C(=O)C(C(N)=O)=C(O)CC3CC21 (centres unmarked) [CMT-4, 7-chloro-4-de(dimethylamino)tetracycline]",–,90,98,130,–
"CC1(O)c2cccc(O)c2C(=O)C2=C(O)C3(O)C(=O)C(C(N)=O)=C(O)CC3CC21 (centres unmarked) [CMT-1, 4-de(dimethylamino)tetracycline]",–,93,95,90,–
tetracycline pyrazole [CMT-5],comparably low or no potency,78,112,102,–
"C[C@H]1c2cccc(O)c2C(O)=C2C(=O)[C@]3(O)C(O)=C(C(N)=O)C(=O)C[C@@H]3[C@@H](O)[C@@H]21 [CMT-8, 6-deoxy-5α-hydroxy-4-de(dimethylamino)tetracycline]",–,96,82,57,"inhibition of ECM degradation, in words [2]: showed some inhibition of ECM degradation"
CN(C)c1ccc(O)c2c1C[C@H]1C[C@H]3[C@H](N(C)C)C(O)=C(C(N)=O)C(=O)[C@@]3(O)C(O)=C1C2=O [minocycline],–,–,–,–,"leukocyte elastase inhibitory activity, in words [3]: do not exhibit substantial leukocyte elastase inhibitory activity"
"Cc1c2c(c(O)c3c(O)cccc13)C(=O)C1C(O)=C(C(N)=O)C(=O)CC1C2 (stereo not drawn) [CMT-9, 4-de(dimethylamino)-12α-deoxyanhydrotetracycline]",–,–,–,–,activity at 5 µM ([2]; 5 μm): 88%; activity at 25 µM ([2]; 25 μm): 215%; activity at 50 µM ([2]; 50 μm): 190%
"CC1(O)c2cccc(O)c2C(=O)C2=C(O)C3C(=O)C(C(N)=O)=C(O)CC3CC21 (stereo not drawn) [CMT-7, 4-de(dimethylamino)-12α-deoxytetracycline]",–,97,84,100,–
